Tests used:
[1] = target: T1, flag-tagged human GST-Omega-2 (Homo sapiens, UniProt Q9H4Y5); assay: Diarylsulfonylurea (Compound 2) affinity column binding of GST-Omega-2 from HEK293 lysate, Western detection; design: expressed in transfected cells; settings: 5 mM in buffer; Western blot of column fractions
T1 sequence (Q9H4Y5 1-242 limits assumed): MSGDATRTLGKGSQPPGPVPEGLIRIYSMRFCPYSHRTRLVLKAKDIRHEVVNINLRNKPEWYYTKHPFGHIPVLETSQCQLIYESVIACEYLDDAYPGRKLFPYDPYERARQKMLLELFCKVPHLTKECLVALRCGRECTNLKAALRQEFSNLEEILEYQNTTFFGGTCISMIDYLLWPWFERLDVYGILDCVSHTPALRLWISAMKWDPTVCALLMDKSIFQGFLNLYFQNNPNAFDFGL
Description: Human embryonic kidney (HEK293) cells were transfected with a pcDNA3.1 mammalian expression vector encoding FLAG-tagged human GST-Omega-2. Stable transfectants isolated by growth in the presence of G418 were subcloned and a high expressing colony was identified. Four confluent 10 cm dishes of this cell line were established after which the cells were harvested and then disrupted by nitrogen cavitation. The resulting cell lysate was clarified by centrifugation and the supernatant fraction was recovered and applied to an affinity column (1 ml) composed of 1-(1,2,3,5,6,7-Hexahydro-s-indacen-4-yl)-3-[2-fluoro-5-oxiranylbenzenesulfonyl]-urea (hereinafter referred to as Compound 2 as per U.S. Patent Publication 2002-0034764) attached to Thiolpropyl-Sepharose. Compound 2 is a diarylsulfonylurea that contains an epoxide group which can react to form a covalent linkage with Thiolpropyl-Sepharose. In some cases, the cell extract was applied to the column in a buffer containing 5 mM of a competitive inhibitor, 1-(1,2,3,5,6,7-Hexahydro-s-indacen-4-yl)-3-[4-(1-hydroxy-1-methylethyl)-furan-2-sulfonyl]-urea (hereinafter referred to as Compound 4 as per the '372 application). The column was washed with buffer then eluted with a denaturing detergent, sodium dodecyl sulfate (SDS). Individual 1 ml fractions were collected and aliquots of each were fractionated by SDS/PAGE. […]

[2] = target: T1, flag-tagged human GST-Omega-2; assay: Competitive binding assay: incorporation of [14C]Compound 2 into GST-Omega-2 in infected SF9 cells; design: expressed in transfected cells; host or cells: SF9 insect cells, baculovirus infection (pFASTBAC-flag shuttle vector); settings: 30 min preincubation, then 2 µM [14C]Compound 2 for 60 min, relative to control cultures
Procedure: Insect cells (SF9) were infected with a baculovirus construct encoding flag-tagged human GST-Omega-2 (see Example 5) and seeded into individual 10 cm dishes. After 48 hr of infection, media were removed and replaced with fresh medium (6 ml) containing 100, 200 or 400 μM Compound 4, 10 μM Compound 2, or neither compound. The cultures were incubated for 30 min at room temperature after which 2 µM [^14C]Compound 2 was introduced and the cultures were incubated for 60 min at room temperature. The cells then were harvested by centrifugation, washed with PBS to remove unbound radioactivity, and solubilized by detergent extraction. GST-Omega-2 was recovered by immunoprecipitation with anti-Flag M2 antibody, and the resulting immunoprecipitates were fractionated by SDS/PAGE; the dried gel subsequently was analyzed by phosphorimager analysis.

[3] = target: T2, flag-tagged murine GST-Omega-2 (Mus musculus, UniProt Q8K2Q2); assay: Labeling of murine GST-Omega-2 by [14C]Compound 2 in infected SF9 cells, SDS/PAGE autoradiography; type: binding; settings: 60 min
T2 construct: expressed in transfected cells; host or cells: SF9 insect cells, baculovirus infection (pFASTBAC-flag shuttle vector)
T2 sequence (Q8K2Q2 1-248): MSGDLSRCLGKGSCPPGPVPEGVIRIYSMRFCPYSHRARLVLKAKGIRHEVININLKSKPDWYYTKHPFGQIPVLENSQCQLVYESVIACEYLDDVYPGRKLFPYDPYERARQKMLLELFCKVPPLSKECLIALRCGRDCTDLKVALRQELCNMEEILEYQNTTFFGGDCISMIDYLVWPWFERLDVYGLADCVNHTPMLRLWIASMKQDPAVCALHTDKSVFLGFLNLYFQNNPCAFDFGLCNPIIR
Procedure: (§1) Insect cells (SF9) were infected with a baculovirus construct encoding flag-tagged murine GST-Omega-2 (see Example 5) and seeded into individual 10 cm dishes. For comparison, SF9 cells also were infected with a baculovirus construct encoding IKK[…] (IkappaB kinase gamma). After 48 hr of infection, media were removed and replaced with fresh medium (6 ml) containing from 0.01 to 10 μM [^14C]Compound 2. Cells were incubated with the radiolabeled diarylsulfonylurea for 60 min (at room temperature) and then collected by centrifugation and washed to remove unbound test agent. Each cell pellet then was suspended in 5 ml of PBS and divided into 2 fractions. Cells within one of these fractions (⅕ of the total) were collected by centrifugation and suspended in 150 µl of SDS/PAGE disaggregation buffer. Cells within the other fraction (⅘ of the total) were collected by centrifugation, solubilized by detergent extraction, and recombinant GST-Omega-2 was recovered by immunoprecipitation with the anti-Flag M2 antibody. Both the total cell lysates and the immunoprecipitates were fractionated by SDS/PAGE and the dried gels were analyzed by autoradiography.

[4] = target: T1, flag-tagged human GST-Omega-2; assay: Labeling of GST-Omega-2 by [14C]Compound 2 in infected SF9 cells, SDS/PAGE autoradiography; type: binding; design: expressed in transfected cells; host or cells: SF9 insect cells, baculovirus infection (pFASTBAC-flag shuttle vector); settings: 60 min
Procedure: as §1, with “human” for “murine”, “(I-κB kinase-γ/NF-κB essential modulator (NEMO)).” for “(IkappaB kinase gamma).”, “μM of” for “μM”

[5] = 1 µM, room temperature, versus IKK-expressing control cells
[6] = 10 µM (highest test concentration), control and GST-Omega-2-expressing cells

CC(C)(O)c1coc(S(=O)(=O)NC(=O)Nc2c3c(cc4c2CCC4)CCC3)c1 [Compound 4, 1-(1,2,3,5,6,7-Hexahydro-s-indacen-4-yl)-3-[4-(1-hydroxy-1-methylethyl)-furan-2-sulfonyl]-urea]
competition with binding of GST-Omega-2 to the diarylsulfonylurea affinity column [1]: competed with the specific binding of GST-Omega-2 to the diarylsulfonylurea affinity column | inhibition of incorporation of [14C]Compound 2 into GST-Omega-2 ([2]; 100 µM test compound): 63% | inhibition of incorporation of [14C]Compound 2 into GST-Omega-2 ([2]; 200 µM test compound): 73% | inhibition of incorporation of [14C]Compound 2 into GST-Omega-2 ([2]; 400 µM test compound): 84%

O=C(Nc1c2c(cc3c1CCC3)CCC2)NS(=O)(=O)c1cc(C2CO2)ccc1F (centres unmarked) [Compound 2, 1-(1,2,3,5,6,7-Hexahydro-s-indacen-4-yl)-3-[2-fluoro-5-oxiranylbenzenesulfonyl]-urea]
inhibition of incorporation of [14C]Compound 2 into GST-Omega-2 ([2]; 10 µM unlabeled compound): 90%

O=C(Nc1c2c(cc3c1CCC3)CCC2)NS(=O)(=O)c1cc(C2CO2)ccc1F (centres unmarked) [[^14C]Compound 2]
polypeptides labeled in infected cells [3, 5]: only the polypeptide migrating as GST-Omega-2 appeared labeled | polypeptides labeled in infected cells [3, 6]: appeared to incorporate into several polypeptides | incorporation of radioactivity into anti-flag immunoprecipitated GST-Omega-2 ([3]; 0.01 to 10 μM): dose-dependent increase in the incorporation of radioactivity into the immunoprecipitated protein | polypeptides labeled in infected cells [4, 5]: only the polypeptide migrating as GST-Omega-2 appeared labeled | polypeptides labeled in infected cells [4, 6]: appeared to incorporate into several polypeptides | incorporation of radioactivity into anti-flag immunoprecipitated GST-Omega-2 ([4]; 0.01 to 10 μM): dose-dependent increase in the incorporation of radioactivity into the immunoprecipitated protein
